Four compounds from ChEMBL document CHEMBL2321745, “Synthesis and biological evaluation of substituted benzoxazoles as inhibitors of mPGES-1: use of a conformation-based hypothesis to facilitate compound design” (Bioorg Med Chem Lett, 2013) can be followed below.

A short description of data set [1]: Apparent intrinsic clearance in human liver microsomes. In kind it is ADME, Microsome. To be noted: read-out: CLH(app). In general terms: Liver microsomes are vesicles of endoplasmic reticulum, rich in cytochrome P450 enzymes.
A short description of data set [2]: Clearance in Sprague-Dawley rat at 1 mg/kg, iv. In kind it is ADME, organism-based. More on the design: dose 1 mg/kg, route intravenous. To be noted: in vivo.
The nature of data set [3]: Oral bioavailability in Sprague-Dawley rat at 1 mg/kg. It counts as ADME, organism-based. The following applies: in vivo.
Data set [4] in a line: Mean residence time in Sprague-Dawley rat at 1 mg/kg, po. The following applies: in vivo. It counts as ADME, organism-based. More on the design: dose 1 mg/kg, route oral.
Data set [5] in a line: Volume of distribution at steady state in Sprague-Dawley rat at 1 mg/kg, iv. In kind it is ADME, organism-based. The arrangement: dose 1 mg/kg, route intravenous. The following applies: in vivo, read-out: Vdss.
The nature of data set [6]: Half life in Sprague-Dawley rat at 1 mg/kg, po. In kind it is ADME, organism-based. The arrangement: dose 1 mg/kg, route oral. To be noted: in vivo.
Data set [7] is described as follows: AUC (infinity) in Sprague-Dawley rat at 1 mg/kg, po. More on the design: time infinity, dose 1 mg/kg, route oral. It counts as ADME, organism-based. To be noted: plasma.
The nature of data set [8]: Cmax in Sprague-Dawley rat at 1 mg/kg, po. The following applies: in vivo. It counts as ADME, organism-based. The arrangement: dose 1 mg/kg, route oral.

Each structure is given as a SMILES string.

`Cc1cc2oc(N3CCC(C(=O)N[C@H]4CCC[C@H](C(C)(C)O)C4)CC3)nc2cc1Cl`: in data set [1], the CLint scaled turned out to be 223 mL/min/kg. The clearance – broadly, the volume of plasma or blood freed of the substance per unit of time – in data set [2] is 44 mL/min/kg. Also, the bioavailability (in general, the share of a dose that reaches the circulation, judged against a reference dose that is usually intravenous) in data set [3] came out at 15%. Besides, the mean residence time MRT (usually a mean duration of stay, worked out from the concentration-time curve) in data set [4] was determined as 0.78 h. Further, in data set [5], the Vd is 2 L/kg. For the same compound, in data set [6], the half-life (as a rule, how long it takes for the measured level to halve) is 0.54 h.

On to `CS(=O)(=O)[C@H]1CCC[C@H](NC(=O)C2CCN(c3nc4cc(Cl)c(C(F)(F)F)cc4o3)CC2)C1`, for which the CLint scaled in data set [1] came out at 4.6 mL/min/kg. Also, in data set [2], the clearance was determined as 9.4 mL/min/kg. This compound also gave a bioavailability in data set [3] of 30%. For the same compound, the MRT in data set [4] was found to be 6.5 h. In data set [5], the Vd is 2.1 L/kg. In data set [6], this compound showed a half-life of 17 h. In addition, in data set [7], the area under the curve AUC(0-inf) (as a rule, total exposure, with the tail of the curve extrapolated) was found to be 1.1 µM·h. Also, the Cmax – broadly, the peak of the concentration-time curve – in data set [8] was found to be 150 nM.

Turning to `O=C(N[C@H]1CCC[C@H](CO)C1)C1CCN(c2nc3cc(Cl)c(-c4ccc(Cl)cc4)cc3o2)CC1`, the bioavailability in data set [3] was 42%. In addition, the MRT in data set [4] was determined as 6.8 h. Moreover, the Vd in data set [5] was 2.9 L/kg. The total exposure AUC(0-inf) in data set [7] was determined as 1.9 µM·h. Further, the concentration in data set [8] peaked (Cmax) at 200 nM.

As to `CC(C)(O)[C@H]1CCC[C@H](NC(=O)C2CCN(c3nc4cc(Cl)c(C(F)(F)F)cc4o3)CC2)C1`, the CLint scaled in data set [1] is 98 mL/min/kg. In addition, the clearance in data set [2] turned out to be 30 mL/min/kg. The bioavailability in data set [3] was found to be 38%. Further, in data set [4], the mean residence time MRT was 3.6 h. For the same compound, the Vd in data set [5] was 4.6 L/kg. This compound also showed a half-life in data set [6] of 5.4 h. This compound returned an AUC(0-inf) in data set [7] of 0.45 µM·h. This compound displayed a Cmax in data set [8] of 120 nM.
